Results: patent US20240148833A1, “COMPOSITION COMPRISING GLP-1 RECEPTOR AGONIST AND ACAT INHIBITOR” (EFIL BioScience Inc., priority 2022, published 2024)
Like-named read-outs stand apart in the source and are kept apart here.

Tests used:
[1] = Cohort 1: daily sc administration in morbidly obese DIO mice, body weight, food intake, organ weight; type: in vivo, male C57BL/6 mice; settings: for mean body weight change, % of starting body weight: initial 4-week period (day 28), avasimibe 10 mg/kg BW, semaglutide 0.04 mg/kg BW, HF diet
Procedure: (§1) Cohort 1: The first set of animal study was conducted at Nonclinical Research Institute, ChemOn Inc., and experimental procedures were approved by Institutional Animal Care and Use Committee (serial number 2021-09-007). Eight-week-old male C57BL/6 mice were purchased (Orient Bio Inc., Republic of Korea). After 2-week acclimation, the mice were fed with high-fat (HF) diet (cat #: D12492, Research Diets Inc.) for 12 weeks to develop DIO. These mice were then randomly assigned to control, avasimibe, semaglutide, and combination groups. Avasimibe solution was prepared for making the final concentration of avasimibe at 10 mg/kg BW, as described in Y. Zhu, S. Q. Kim, Y. Zhang, Q. Liu, K. H. Kim, Pharmacological inhibition of acyl-coenzyme A:cholesterol acyltransferase alleviates obesity and insulin resistance in diet-induced obese mice by regulating food intake, Metabolism 123 (2021) 154861, which is incorporated herein by reference. Semaglutide stock solution prepared in DMSO (1 mg/ml) was diluted with PBS for the final concentration of 0.04 mg/kg BW. The drug solution or the vehicle solution at a volume of 10 μl/g BW was injected to the mice sc daily for the indicated days.
Cohort 1 mice were used to investigate whether combined treatment with semaglutide and a lower dose avasimibe compared to single semaglutide injection in morbidly obese mice (FIG. 1A). On the first day of the experiment, the average body weight of the mice was recorded as 48.84±2.26 grams (FIG. 1B). […] Mice in the vehicle control and avasimibe groups were sacrificed after additional 16 days of treatment (FIG. 1A). Throughout the initial 4-week period, the mean body weight of the vehicle-treated animals increased by 1.2% compared to their starting body weight. In contrast, the mean body weight changes for mice treated with avasimibe, semaglutide, or the combination of both drugs were −6.29%, −21.66%, and −30.47% of their starting body weight, respectively (FIG. 1C). […] Y. Zhu, S. Q. Kim, Y. Zhang, Q. Liu, K. H. Kim, Pharmacological inhibition of acyl-coenzyme A:cholesterol acyltransferase alleviates obesity and insulin resistance in diet-induced obese mice by regulating food intake, Metabolism 123 (2021) 154861, which is incorporated herein by reference. Consequently, we increased the avasimibe dose to 20 mg/kg BW in the subsequent study involving the second cohort of mice. […] However, as the treatment regimen continued, food intake gradually returned to baseline levels, and the effect of semaglutide diminished around day 26. […] To investigate potential toxic effects of the combination treatment on the liver, we measured plasma ALT and AST levels.

[2] = type: in vivo, male C57BL/6 mice; parameters: Plasma Cholesterol / Plasma CE (cholesteryl ester): unit not given here; settings: mean±SEM, n=10
Procedure: as §1
Body composition (e.g., fat mass, lean mass, free water, and total water) changes were assessed right before sacrificing the second cohort of mice using EchoMRI (Echo Medical Systems). Blood samples were obtained after fasting for 3h, frozen and stored until analysis. Aspartate transaminase (AST), alanine aminotransferase (ALT), glucose, triglycerides (TG), high-density lipoprotein (HDL-C) and low-density lipoprotein cholesterol (LDL-C) were also measured (AU680 Chemistry Analyzer, Beckman Coulter). The levels of serum leptin (cat #: ab100718, Abcam) and insulin (cat #: ab277390, Abcam) were determined by enzyme-linked immunosorbent assay kit and cholesterol/CE (cat #: ab65359, Abcam) was determined by an enzymatic assay according to the manufacturers' instructions.

[3] = Cohort 2: sc administration every three days for 23 days in moderately obese DIO mice, body weight and food intake; type: in vivo, male C57BL/6 mice; settings: for mean body weight loss, % of the starting body weight: sc every three days for 23 days, avasimibe 20 mg/kg BW, HF diet
Procedure: Cohort 2: The second set of animal experiments were conducted according to a protocol approved by the Purdue Animal Care and Use Committee (protocol number: 11129000347). Male C57BL/6 DIO mice were purchased from Jackson Laboratory. After 8-week HF diet feeding, mice were randomly assigned to the same groups as cohort 1: control, avasimibe, semaglutide, and combination groups. Avasimibe (20 mg/kg BW) and semaglutide (0.04 mg/kg BW) were prepared in the method used with regard to Cohort 1, and the drugs were sc injected every three days for 23 days. Mice were kept on a 12/12 h light/dark cycle in a humidity and temperature control facility with ad libitum access to food and water. To validate the impact of the combined treatment of semaglutide and avasimibe in DIO mice and to simulate a weekly semaglutide regimen for humans, we utilized Cohort 2 mice (FIG. 2A). On day 1, the average body weight of the mice was recorded as 37.37±3.58 grams. Throughout the treatment period, the mice in the vehicle group continued to gain weight, reaching an average body weight of 41.58±4.74 grams, representing a […] increase from the starting body weight (FIG. 2B). […] Specifically, the mean body weight losses were 0.82%, 8.56%, and 14.89% of the starting body weight for the mice treated with avasimibe, semaglutide, and the combination of both drugs, respectively (FIG. 2C).

[4] = Cohort 2: oral glucose tolerance test (OGTT); type: in vivo, male C57BL/6 mice; settings: sc every three days, avasimibe 20 mg/kg BW; D-glucose 2 g/kg BW oral after 6 h fast
Procedure: (§2) Cohort 2: The second set of animal experiments were conducted according to a protocol approved by the Purdue Animal Care and Use Committee (protocol number: 11129000347). Male C57BL/6 DIO mice were purchased from Jackson Laboratory. After 8-week HF diet feeding, mice were randomly assigned to the same groups as cohort 1: control, avasimibe, semaglutide, and combination groups. Avasimibe (20 mg/kg BW) and semaglutide (0.04 mg/kg BW) were prepared in the method used with regard to Cohort 1, and the drugs were sc injected every three days for 23 days. Mice were kept on a 12/12 h light/dark cycle in a humidity and temperature control facility with ad libitum access to food and water. Mice were fasted for 6 hrs (07:00-13:00) prior to oral administration of D-glucose (2 g/kg BW). Tail blood samples were obtained before (at 0) and at 15, 30, 60, 90 and 120 minutes after glucose challenge for the measurement of blood glucose concentration using a CONTOUR® NEXT glucometer (Ascensia Diabetes Care, Parsippany, NJ, USA).

[5] = Cohort 2: histological measurement of adipocyte size in inguinal fat pad (H&E); type: in vivo, male C57BL/6 mice; settings: sc every three days for 23 days
Procedure: as §2, with “water.” for “water. Mice were fasted for 6 hrs (07:00-13:00) prior to oral administration of D-glucose (2 g/kg BW). Tail blood samples were obtained before (at 0) and at 15, 30, 60, 90 and 120 minutes after glucose challenge for the measurement of blood glucose concentration using a CONTOUR® NEXT glucometer (Ascensia Diabetes Care, Parsippany, NJ, USA).”
During animal sacrifice, adipose tissues were rinsed with saline solution, fixed in 10% neutral formalin buffered solution, and embedded in paraffin. The tissues were then cut into […] sections and stained with hematoxylin and eosin (H&E) to measure cell size (˜100 cells/mouse) by ImageJ software (NIH).

[6] = daily intraperitoneal (ip) 20 mg/kg BW avasimibe for 14 day; cited from earlier work
[7] = Day 43, daily sc avasimibe 10 mg/kg BW
[8] = Day 29, daily sc semaglutide 0.04 mg/kg BW with or without avasimibe 10 mg/kg BW

Molecule: CC(C)c1cc(C(C)C)c(CC(=O)NS(=O)(=O)Oc2c(C(C)C)cccc2C(C)C)c(C(C)C)c1 [Avasimibe, avasimibe]
- mean body weight change, % of starting body weight ([1]; daily sc): −6.29%
- Plasma Glucose [2, 7]: 139.7 ± 6.32 mg/dL
- Plasma HDL [2, 7]: 35.13 ± 1.14 mg/dL
- Plasma Insulin [2, 7]: 1.43 ± 0.29 mIU/mL
- Plasma LDL [2, 7]: 7.14 ± 0.46 mg/dL
- Plasma Leptin [2, 7]: 6.72 ± 1.40 pg/mL
- Plasma TG (triglyceride) [2, 7]: 33.80 ± 2.09 mg/dL
- mean body weight loss, % of the starting body weight ([3]; semaglutide 0.04 mg/kg BW): 0.82%
- glucose tolerance in OGTT [4]: did not enhance glucose tolerance
- percentage of large adipocytes (20,001-100,000 μm^2) compared to vehicle group [5]: lower percentage
- percentage of small adipocytes (5,001-10,000 μm^2) compared to vehicle group [5]: significantly higher percentage
- reduction in body weight [6]: 24%

Molecule: semaglutide
- day around which the effect on food intake diminished ([1]; daily sc semaglutide 0.04 mg/kg BW): ~26 days
- mean body weight change, % of starting body weight ([1]; daily sc): −21.66%
- food intake compared to vehicle or avasimibe alone ([1]; daily sc, early treatment period): rapid suppression of food intake
- Plasma CE (cholesteryl ester) [2, 8]: 7.071 ± 0.240
- Plasma Cholesterol [2, 8]: 8.055 ± 0.292
- Plasma Glucose [2, 8]: 121.73 ± 6.26 mg/dL
- Plasma HDL [2, 8]: 37.02 ± 1.14 mg/dL
- Plasma Insulin [2, 8]: 0.41 ± 0.07 mIU/mL
- Plasma LDL [2, 8]: 5.05 ± 0.60 mg/dL
- Plasma Leptin [2, 8]: 2.99 ± 0.65 pg/mL
- Plasma TG (triglyceride) [2, 8]: 21.60 ± 1.38 mg/dL
- mean body weight loss, % of the starting body weight ([3]; semaglutide 0.04 mg/kg BW): 8.56%
- time for food intake to recover after each administration ([3]; sc every three days, semaglutide 0.04 mg/kg BW): ≤ 48 h
- food intake by day 22, versus vehicle group ([3]; sc every three days, by the seventh administration): surpass that of the vehicle group
- percentage of large adipocytes (40,001-100,000 μm^2) compared to vehicle group [5]: lower percentage
